Measurements as given in patent publication US8192962B2, “Processes for detecting toxic substances” (Daikin Industries, Ltd., priority 2001, dated 2012).

System: Unknown protein yeast genes
Assay: DNA chip mRNA expression in yeast, unknown protein yeast genes (Table 1)
Format: cell-based, Saccharomyces cerevisiae S288C
Summary of the method: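 Measured as treated-to-untreated fluorescence ratio on a full-genome yeast DNA chip. Cells (S288C, YPD, 25° C.) were exposed in log phase for two hours to one chemical, dosed to curb growth without killing.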

SMILES: CN(C)C(=S)SSC(=S)N(C)C [(10), Tetramethylthiuram disulfide]
- The level of expressed mRNA in the presence of chemical substance/The level of expressed mRNA in the absence of chemical substance (yeast gene YAL053W, incubated two hours with chemical substance): 0.9
- The level of expressed mRNA in the presence of chemical substance/The level of expressed mRNA in the absence of chemical substance (yeast gene YBL048W): 4.4
- The level of expressed mRNA in the presence of chemical substance/The level of expressed mRNA in the absence of chemical substance (yeast gene YBL107C): 3.1
- The level of expressed mRNA in the presence of chemical substance/The level of expressed mRNA in the absence of chemical substance (yeast gene YBR100W): 3.0
- The level of expressed mRNA in the presence of chemical substance/The level of expressed mRNA in the absence of chemical substance (yeast gene YDL072C, incubated two hours with chemical substance): 1.5
- The level of expressed mRNA in the presence of chemical substance/The level of expressed mRNA in the absence of chemical substance (yeast gene YDL204W, incubated two hours with chemical substance): 2.0
- The level of expressed mRNA in the presence of chemical substance/The level of expressed mRNA in the absence of chemical substance (yeast gene YDL222C, incubated two hours with chemical substance): 1.0
- The level of expressed mRNA in the presence of chemical substance/The level of expressed mRNA in the absence of chemical substance (yeast gene YDR330W, incubated two hours with chemical substance): 2.6
- The level of expressed mRNA in the presence of chemical substance/The level of expressed mRNA in the absence of chemical substance (yeast gene YDR391C, incubated two hours with chemical substance): 2.7
- The level of expressed mRNA in the presence of chemical substance/The level of expressed mRNA in the absence of chemical substance (yeast gene YDR411C, incubated two hours with chemical substance): 1.0
- The level of expressed mRNA in the presence of chemical substance/The level of expressed mRNA in the absence of chemical substance (yeast gene YDR511W, incubated two hours with chemical substance): 2.2
- The level of expressed mRNA in the presence of chemical substance/The level of expressed mRNA in the absence of chemical substance (yeast gene YDR545W, incubated two hours with chemical substance): 0.7
- The level of expressed mRNA in the presence of chemical substance/The level of expressed mRNA in the absence of chemical substance (yeast gene YEL001C, incubated two hours with chemical substance): 1.2
- The level of expressed mRNA in the presence of chemical substance/The level of expressed mRNA in the absence of chemical substance (yeast gene YER004W, incubated two hours with chemical substance): 2.9
- The level of expressed mRNA in the presence of chemical substance/The level of expressed mRNA in the absence of chemical substance (yeast gene YER035W, incubated two hours with chemical substance): 1.4
- The level of expressed mRNA in the presence of chemical substance/The level of expressed mRNA in the absence of chemical substance (yeast gene YER079W, incubated two hours with chemical substance): 3.4
- The level of expressed mRNA in the presence of chemical substance/The level of expressed mRNA in the absence of chemical substance (yeast gene YER106W, incubated two hours with chemical substance): 1.8
- The level of expressed mRNA in the presence of chemical substance/The level of expressed mRNA in the absence of chemical substance (yeast gene YER158C, incubated two hours with chemical substance): 1.6
- The level of expressed mRNA in the presence of chemical substance/The level of expressed mRNA in the absence of chemical substance (yeast gene YER163C, incubated two hours with chemical substance): 3.4
- The level of expressed mRNA in the presence of chemical substance/The level of expressed mRNA in the absence of chemical substance (yeast gene YER175C, incubated two hours with chemical substance): 11.5
- The level of expressed mRNA in the presence of chemical substance/The level of expressed mRNA in the absence of chemical substance (yeast gene YFL006W, incubated two hours with chemical substance): 1.7
- The level of expressed mRNA in the presence of chemical substance/The level of expressed mRNA in the absence of chemical substance (yeast gene YFL010C, incubated two hours with chemical substance): 1.4
- The level of expressed mRNA in the presence of chemical substance/The level of expressed mRNA in the absence of chemical substance (yeast gene YFL024C): 0.5
- The level of expressed mRNA in the presence of chemical substance/The level of expressed mRNA in the absence of chemical substance (yeast gene YFL032W, incubated two hours with chemical substance): 0.6
- The level of expressed mRNA in the presence of chemical substance/The level of expressed mRNA in the absence of chemical substance (yeast gene YFR020W): 3.5
- The level of expressed mRNA in the presence of chemical substance/The level of expressed mRNA in the absence of chemical substance (yeast gene YGL037C, incubated two hours with chemical substance): 1.6
- The level of expressed mRNA in the presence of chemical substance/The level of expressed mRNA in the absence of chemical substance (yeast gene YGL047W, incubated two hours with chemical substance): 5.7
- The level of expressed mRNA in the presence of chemical substance/The level of expressed mRNA in the absence of chemical substance (yeast gene YGL053W, incubated two hours with chemical substance): 2.4
- The level of expressed mRNA in the presence of chemical substance/The level of expressed mRNA in the absence of chemical substance (yeast gene YGL121C): 15.0
- The level of expressed mRNA in the presence of chemical substance/The level of expressed mRNA in the absence of chemical substance (yeast gene YGL199C, incubated two hours with chemical substance): 0.1
- The level of expressed mRNA in the presence of chemical substance/The level of expressed mRNA in the absence of chemical substance (yeast gene YGR101W, incubated two hours with chemical substance): 1.4
- The level of expressed mRNA in the presence of chemical substance/The level of expressed mRNA in the absence of chemical substance (yeast gene YGR110W): 4.8
- The level of expressed mRNA in the presence of chemical substance/The level of expressed mRNA in the absence of chemical substance (yeast gene YGR130C, incubated two hours with chemical substance): 1.5
- The level of expressed mRNA in the presence of chemical substance/The level of expressed mRNA in the absence of chemical substance (yeast gene YGR154C, incubated two hours with chemical substance): 9.1
- The level of expressed mRNA in the presence of chemical substance/The level of expressed mRNA in the absence of chemical substance (yeast gene YGR221C, incubated two hours with chemical substance): 0.7
- The level of expressed mRNA in the presence of chemical substance/The level of expressed mRNA in the absence of chemical substance (yeast gene YGR243W): 3.0
- The level of expressed mRNA in the presence of chemical substance/The level of expressed mRNA in the absence of chemical substance (yeast gene YHR029C): 8.6
- The level of expressed mRNA in the presence of chemical substance/The level of expressed mRNA in the absence of chemical substance (yeast gene YHR105W): 3.4
- The level of expressed mRNA in the presence of chemical substance/The level of expressed mRNA in the absence of chemical substance (yeast gene YHR138C, incubated two hours with chemical substance): 4.6
- The level of expressed mRNA in the presence of chemical substance/The level of expressed mRNA in the absence of chemical substance (yeast gene YHR199C, incubated two hours with chemical substance): 6.0
- The level of expressed mRNA in the presence of chemical substance/The level of expressed mRNA in the absence of chemical substance (yeast gene YHR209W): 6.4
- The level of expressed mRNA in the presence of chemical substance/The level of expressed mRNA in the absence of chemical substance (yeast gene YIL023C, incubated two hours with chemical substance): 1.6
- The level of expressed mRNA in the presence of chemical substance/The level of expressed mRNA in the absence of chemical substance (yeast gene YIL024C, incubated two hours with chemical substance): 1.8
- The level of expressed mRNA in the presence of chemical substance/The level of expressed mRNA in the absence of chemical substance (yeast gene YIL041W, incubated two hours with chemical substance): 1.4
- The level of expressed mRNA in the presence of chemical substance/The level of expressed mRNA in the absence of chemical substance (yeast gene YIL087C, incubated two hours with chemical substance): 1.8
- The level of expressed mRNA in the presence of chemical substance/The level of expressed mRNA in the absence of chemical substance (yeast gene YJL057C, incubated two hours with chemical substance): 6.1
- The level of expressed mRNA in the presence of chemical substance/The level of expressed mRNA in the absence of chemical substance (yeast gene YJL066C, incubated two hours with chemical substance): 2.1
- The level of expressed mRNA in the presence of chemical substance/The level of expressed mRNA in the absence of chemical substance (yeast gene YJL082W, incubated two hours with chemical substance): 2.9
- The level of expressed mRNA in the presence of chemical substance/The level of expressed mRNA in the absence of chemical substance (yeast gene YJL151C, incubated two hours with chemical substance): 1.6
- The level of expressed mRNA in the presence of chemical substance/The level of expressed mRNA in the absence of chemical substance (yeast gene YJL152W, incubated two hours with chemical substance): 1.0
- The level of expressed mRNA in the presence of chemical substance/The level of expressed mRNA in the absence of chemical substance (yeast gene YJL161W, incubated two hours with chemical substance): 2.1
- The level of expressed mRNA in the presence of chemical substance/The level of expressed mRNA in the absence of chemical substance (yeast gene YJL171C, incubated two hours with chemical substance): 1.7
- The level of expressed mRNA in the presence of chemical substance/The level of expressed mRNA in the absence of chemical substance (yeast gene YJR008W, incubated two hours with chemical substance): 1.9
- The level of expressed mRNA in the presence of chemical substance/The level of expressed mRNA in the absence of chemical substance (yeast gene YJR054W, incubated two hours with chemical substance): 0.6
- The level of expressed mRNA in the presence of chemical substance/The level of expressed mRNA in the absence of chemical substance (yeast gene YKL071W): 109.2
